One data set has as its system Digitaria sanguinalis. Put plainly: Weeding effect in post-emergence stage (greenhouse pot spray). It counts as in vivo. In short, it runs like this:
(§1)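 Pot-grown greenhouse plants, 2-3 leaf stage; spray-tower application; formulation acetone/Tween 80 plus methyl oleate EC 1.5 liter/ha as synergist; rates 500, 250, 125, 60, 15 g a.i./ha; assessed 3 wk post-treatment as fresh weight control, n=3.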

The test system of the next data set is Echinochloa crusgalli. The data set is described as above. It counts as in vivo. In short, it runs like this: as §1
A further data set relates to Setaria viridis. The description is as above. It counts as in vivo. A digest of the protocol: as §1
The test system of a further data set is Echinochloa crusgali. As to the kind of experiment: Transplanted rice safety evaluation and weed control effect evaluation in rice field. In kind it is in vivo. Particulars: Table 8, dose 60 g a.i./ha. From the text:
(§2) Transplanted rice safety evaluation and weed control effect evaluation in rice field:
(§3) Rice field soil was loaded into a 1/1,000,000 ha pot. The seeds of echinochloa crusgali, scirpus juncoides, Bidens tripartita, Sagittaria trifolia, Monochoria vaginalis and Leptochloa chinensis were sowed and gently covered with soil, then left to stand still in greenhouse in the state of 0.5-1 cm of water storage. The tuber of Sagittaria trifolia was planted in the next day or 2 days later. It was kept at 3-4 cm of water storage thereafter. The weeds were treated by dripping the WP or SC water diluents prepared according to the common preparation method of the compounds of the present invention with pipette homogeneously to achieve specified effective amount when echinochloa crusgali, scirpus juncoides, Bidens tripartita, Monochoria vaginalis and Leptochloa chinensis reached 0.5 leaf stage and Sagittaria trifolia reached the time point of primary leaf stage.
(§4) The fertility condition of echinochloa crusgali, scirpus juncoides, Bidens tripartita, Leptochloa chinensis, Sagittaria trifolia and Monochoria vaginalis 14 days after the treatment of the compound of the invention and the fertility condition of rice 21 days after the treatment of the compound of the invention respectively with the naked eye. Evaluate the weed control effect with 0-5 activity standard level. Many compounds show excellent activity and selectivity.

For a further data set, the system named is Leptochloa chinensis. The data set is described as above. In kind it is in vivo. The settings on record: Table 8, dose 60 g a.i./ha.
Excerpt: as §2, §3, §4

The next data set concerns Monochoria vaginalis. Described as above. Particulars: Table 8, dose 60 g a.i./ha. In kind it is in vivo.
Excerpt: as §2, §3, §4

Another data set concerns Sagittaria trifolia. Described as above. Particulars: Table 8, dose 60 g a.i./ha. In kind it is in vivo.
Excerpt: as §2, §3, §4

Another data set relates to Rice. The description is as above. In kind it is in vivo, rice (japonica rice/Indica rice). Particulars: Table 8, dose 60 g a.i./ha. The protocol: as §2
In addition, the rice field soil that loaded into the 1/1,000,000 ha pot was leveled to keep water storage at 3-4 cm depth. The 3 leaf stage rice (japonica rice/Indica rice) was transplanted at 3 cm of transplanting depth the next day. The compound of the present invention was treated by the same way after 5 days of transplantation.
as §4

As to `Cc1nnc(NC(=O)c2ccc(C(F)(F)F)c([S@+]([O-])CCCCl)c2F)o1` [1-414 (R-configuration)], the “Digitaria sanguinahs (activity level)” value in the data set with Digitaria sanguinalis (Table 3, dose 500 g a.i./ha) is recorded as 5 (Level 5: growth control rate is above 85%). Besides, the “Echinochloa crusgali (activity level)” value with Echinochloa crusgalli (Table 3, dose 500 g a.i./ha) is 5 (Level 5: growth control rate is above 85%); with Echinochloa crusgali, 5 (Level 5: growth control rate is above 85%). Also, in the data set with Setaria viridis (Table 3, dose 500 g a.i./ha), the “Setaria viridis (activity level)” value is 5 (Level 5: growth control rate is above 85%). In addition, the “Leptochloa chinensis (activity level)” value with Leptochloa chinensis was 5 (Level 5: growth control rate is above 85%). Besides, the “Monochoria vaginalis (activity level)” value in the data set on Monochoria vaginalis is on record as 5 (Level 5: growth control rate is above 85%). In addition, the “Sagittaria trifolia (activity level)” value in the data set with Sagittaria trifolia was 5 (Level 5: growth control rate is above 85%). In the data set with Rice, the “Rice (safety level)” value was 0 (Level 0: growth control rate is less than 5%).
For the molecule `Cc1nnc(NC(=O)c2ccc(C(F)(F)F)c([S@@+]([O-])C3COC3)c2F)o1` [1-82 (R-configuration)], the “Digitaria sanguinahs (activity level)” value with Digitaria sanguinalis (Table 3, dose 125 g a.i./ha) is recorded as 5 (Level 5: growth control rate is above 85%). The “Echinochloa crusgali (activity level)” value in the data set on Echinochloa crusgalli (Table 3, dose 125 g a.i./ha) is 5 (Level 5: growth control rate is above 85%); in the data set on Echinochloa crusgali, 5 (Level 5: growth control rate is above 85%). For the same molecule, the “Setaria viridis (activity level)” value in the data set with Setaria viridis (Table 3, dose 125 g a.i./ha) is on record as 5 (Level 5: growth control rate is above 85%). Further, the “Leptochloa chinensis (activity level)” value in the data set with Leptochloa chinensis is on record as 5 (Level 5: growth control rate is above 85%). The “Monochoria vaginalis (activity level)” value in the data set on Monochoria vaginalis is on record as 5 (Level 5: growth control rate is above 85%). Further, the “Sagittaria trifolia (activity level)” value in the data set with Sagittaria trifolia is on record as 5 (Level 5: growth control rate is above 85%). Further, in the data set with Rice, the “Rice (safety level)” value is on record as 0 (Level 0: growth control rate is less than 5%).
`Cc1nnc(NC(=O)c2ccc(C(F)(F)F)c([S@@+]([O-])CCCF)c2F)o1` [1-403 (R-configuration)]: the “Digitaria sanguinahs (activity level)” value in the data set with Digitaria sanguinalis (Table 3, dose 60 g a.i./ha) is listed as 5 (Level 5: growth control rate is above 85%). Further, the “Echinochloa crusgali (activity level)” value in the data set with Echinochloa crusgalli (Table 3, dose 60 g a.i./ha) is 5 (Level 5: growth control rate is above 85%); in the data set on Echinochloa crusgali it was 5 (Level 5: growth control rate is above 85%). The “Setaria viridis (activity level)” value in the data set on Setaria viridis (Table 3, dose 60 g a.i./ha) is reported as 5 (Level 5: growth control rate is above 85%). In addition, the “Leptochloa chinensis (activity level)” value with Leptochloa chinensis is on record as 5 (Level 5: growth control rate is above 85%). The “Monochoria vaginalis (activity level)” value in the data set on Monochoria vaginalis is given as 5 (Level 5: growth control rate is above 85%). The “Sagittaria trifolia (activity level)” value with Sagittaria trifolia is recorded as 5 (Level 5: growth control rate is above 85%). In addition, in the data set with Rice, the “Rice (safety level)” value is 0 (Level 0: growth control rate is less than 5%).
For the molecule `CCCC[S@+]([O-])c1c(C(F)(F)F)ccc(C(=O)Nc2nnc(C)o2)c1F` [1-14 (R-configuration)], the “Digitaria sanguinahs (activity level)” value with Digitaria sanguinalis (Table 3, dose 7.5 g a.i./ha) is 4 (Level 4: growth control rate is greater than or equal to 60% and less than 85%); in the data set with Digitaria sanguinalis (Table 3, dose 15 g a.i./ha), 5 (Level 5: growth control rate is above 85%); with Digitaria sanguinalis (Table 3, dose 30 g a.i./ha), 5 (Level 5: growth control rate is above 85%); in the data set with Digitaria sanguinalis (Table 3, dose 60 g a.i./ha) it was 5 (Level 5: growth control rate is above 85%). The “Echinochloa crusgali (activity level)” value is reported as 5 (Level 5: growth control rate is above 85%) in the data set with Echinochloa crusgalli (Table 3, dose 7.5 g a.i./ha); 5 (Level 5: growth control rate is above 85%) with Echinochloa crusgalli (Table 3, dose 15 g a.i./ha); 5 (Level 5: growth control rate is above 85%) in the data set on Echinochloa crusgalli (Table 3, dose 30 g a.i./ha); 5 (Level 5: growth control rate is above 85%) with Echinochloa crusgalli (Table 3, dose 60 g a.i./ha); 5 (Level 5: growth control rate is above 85%) in the data set with Echinochloa crusgali. Further, the “Setaria viridis (activity level)” value in the data set on Setaria viridis (Table 3, dose 7.5 g a.i./ha) was 4 (Level 4: growth control rate is greater than or equal to 60% and less than 85%); with Setaria viridis (Table 3, dose 15 g a.i./ha) it was 4 (Level 4: growth control rate is greater than or equal to 60% and less than 85%); in the data set on Setaria viridis (Table 3, dose 30 g a.i./ha) it was 5 (Level 5: growth control rate is above 85%); in the data set on Setaria viridis (Table 3, dose 60 g a.i./ha) it was 5 (Level 5: growth control rate is above 85%). In the data set on Leptochloa chinensis, the “Leptochloa chinensis (activity level)” value is recorded as 5 (Level 5: growth control rate is above 85%). Moreover, in the data set on Monochoria vaginalis, the “Monochoria vaginalis (activity level)” value is 5 (Level 5: growth control rate is above 85%). Further, in the data set with Sagittaria trifolia, the “Sagittaria trifolia (activity level)” value is listed as 5 (Level 5: growth control rate is above 85%). Also, in the data set on Rice, the “Rice (safety level)” value was 0 (Level 0: growth control rate is less than 5%).

For the origin of these results see patent US20230041563A1, “N-(1,3,4-OXADIAZOL-2-YL)ARYLCARBOXAMIDES OR SALTS THEREOF, PREPARATION METHODS, HERBICIDAL COMPOSITIONS AND USES THEREOF” (priority 2018, published 2023).
